This note sets out measurements from PubChem BioAssay (NCI).

Some test systems named below: OVCAR-4 ovarian; OVCAR-8 ovarian; SNB-19 CNS; UO-31 renal; SK-OV-3 ovarian; CAKI-1 renal; ACHN renal; SN12C renal; OVCAR-5 ovarian; K-562 leukemia.
Test in all cases: inhibition of tumour cell growth, NCI panel, 48 h

Each structure is given as a SMILES string. “And” between values parts separate entries of the source, which are not always exact repeats. Equal values may be shown once.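 A five-concentration, 48-hour dose response in 96-well plates underlies each endpoint, interpolated linearly between surrounding concentrations. Here, GI50 denotes the concentration required for 50% inhibition of growth. The concentration for full growth arrest is given as TGI.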 Where only a bound is given, the exact number is not on record here.

Turning to `COc1cc(CC2C(=O)OCC2[C@@H](OC(C)=O)c2ccc3c(c2)OCO3)c(Br)c(OC)c1OC` (some centres not stated), the TGI in the experiment with OVCAR-4 ovarian, in the experiment on OVCAR-8 ovarian, in the experiment on SNB-19 CNS, in the experiment on UO-31 renal, with SK-OV-3 ovarian and in the experiment with CAKI-1 renal was above 100 µM each time. The TGI with ACHN renal and with SN12C renal was above 100 µM in each case.

Turning to `c1cnc2nc3n(c2c1)CSC3`, the TGI with OVCAR-4 ovarian, in the experiment with OVCAR-8 ovarian, in the experiment on OVCAR-5 ovarian, in the experiment with K-562 leukemia, with UO-31 renal and with SK-OV-3 ovarian was above 100 µM throughout. Also, the TGI in the experiment on CAKI-1 renal, in the experiment on ACHN renal and in the experiment on SN12C renal was above 100 µM each time.

With `COC1C(C)OC(OC2CC(C)(O)Cc3cc4c(c(O)c32)C(=O)c2c(O)cc3c(c2C4=O)OC2OC3(C)C(O)C(N(C)C)C2O)C(OC)C1(C)OC` (configuration not stated), the TGI in the experiment with OVCAR-4 ovarian was 1.61 µM; in the experiment with OVCAR-8 ovarian it was 2.79 µM and 1.37 µM; in the experiment with K-562 leukemia, 1.94 µM and 1.51 µM; in the experiment with SK-OV-3 ovarian, 1.52 µM and 10.7 µM; with CAKI-1 renal, 0.422 µM and 0.452 µM; with SN12C renal, 6.12 µM and 6.56 µM. For the same compound, the GI50 with OVCAR-8 ovarian is 0.0416 µM and 0.0176 µM; in the experiment on SNB-19 CNS it was 0.055 µM and 0.0181 µM; with K-562 leukemia, 0.0272 µM and 0.0636 µM; in the experiment on CAKI-1 renal it was 0.0476 µM and 0.0219 µM; in the experiment on ACHN renal it was 0.216 µM.

In the case of `O=Cc1cn(S(=O)(=O)c2ccccc2)c2ccccc12`, the TGI in the experiment on OVCAR-4 ovarian is above 100 µM; in the experiment with OVCAR-8 ovarian, above 100 µM; in the experiment on SNB-19 CNS it was above 100 µM; in the experiment on OVCAR-5 ovarian, above 100 µM; in the experiment on K-562 leukemia, 50 µM; in the experiment with UO-31 renal, 68 µM. The TGI in the experiment with SK-OV-3 ovarian, in the experiment with ACHN renal and in the experiment on SN12C renal was above 100 µM throughout.

With `C=C(C)[C@@H]1CC[C@]2(C(=O)N3CCN(C)CC3)CC[C@]3(C)[C@H](CC[C@@H]4[C@@]5(C)CC[C@H](O)C(C)(C)[C@@H]5CC[C@]43C)[C@@H]12`, the GI50 with OVCAR-4 ovarian is 1.77 µM; in the experiment with OVCAR-8 ovarian, 1.69 µM; in the experiment with SNB-19 CNS it was 1.83 µM; in the experiment with OVCAR-5 ovarian, 1.75 µM; in the experiment on UO-31 renal it was 1.67 µM; in the experiment with SK-OV-3 ovarian it was 1.84 µM. Further, the GI50 in the experiment on CAKI-1 renal is 1.59 µM; with ACHN renal it was 1.69 µM; in the experiment on SN12C renal it was 1.72 µM. Also, the TGI in the experiment with OVCAR-4 ovarian was 3.37 µM; in the experiment with OVCAR-8 ovarian, 4.56 µM; in the experiment with SNB-19 CNS, 3.92 µM; in the experiment on OVCAR-5 ovarian it was 3.28 µM; in the experiment with UO-31 renal it was 3.24 µM; in the experiment with SK-OV-3 ovarian, 3.35 µM. The TGI in the experiment with CAKI-1 renal is 3.05 µM; in the experiment on ACHN renal it was 3.12 µM; in the experiment on SN12C renal, 3.46 µM.

For `CSCC(COC(C)=O)(CSC)c1ccncc1`, the TGI in the experiment on OVCAR-4 ovarian, in the experiment with OVCAR-8 ovarian, in the experiment with SNB-19 CNS, with K-562 leukemia, in the experiment on UO-31 renal and in the experiment on SK-OV-3 ovarian was above 100 µM in each case. Besides, the TGI in the experiment on CAKI-1 renal, in the experiment on ACHN renal and in the experiment on SN12C renal was above 100 µM each time.

On to `CCC1OC(=O)CC(O)C(C)C(OC2OC(C)CC(N(C)C)C2O)C(CC=O)CC(C)C(=O)/C=C/C2(C)OC2C1C` (configuration not stated), for which the TGI with OVCAR-8 ovarian was 68.5 µM; in the experiment with SNB-19 CNS, 30.6 µM; with OVCAR-5 ovarian, above 100 µM; in the experiment with K-562 leukemia, 24.3 µM; in the experiment with UO-31 renal, 80.4 µM; with SK-OV-3 ovarian it was 78.9 µM. Besides, the TGI was determined as 74.1 µM in the experiment with CAKI-1 renal, 56.1 µM in the experiment with ACHN renal and 39.1 µM in the experiment with SN12C renal.

For the compound `C=C1CCC2(C(C)=O)COC1(C)O2` (configuration not stated), the TGI in the experiment on OVCAR-8 ovarian, with SNB-19 CNS, in the experiment on K-562 leukemia, in the experiment with UO-31 renal, in the experiment with SK-OV-3 ovarian and in the experiment with ACHN renal was above 100 µM throughout. Besides, in the experiment on SN12C renal, the TGI is above 100 µM.

With `COc1cc(OC)c(/C=C/C(=O)c2c(O)cc(OC)c(C3CCN(C)CC3)c2OC)c(OC)c1`, the GI50 with OVCAR-4 ovarian was 1.4 µM; with SNB-19 CNS, 1.78 µM; with OVCAR-5 ovarian it was 1.48 µM; in the experiment with UO-31 renal, 1.36 µM; with CAKI-1 renal, 1.51 µM; in the experiment on ACHN renal it was 1.58 µM. Further, the TGI came to 3 µM in the experiment with OVCAR-4 ovarian; 3.81 µM in the experiment on SNB-19 CNS; 2.84 µM in the experiment with OVCAR-5 ovarian; 2.81 µM with UO-31 renal; 2.93 µM in the experiment with CAKI-1 renal; 2.98 µM in the experiment on ACHN renal.

Regarding `CC/C(=C(/CC)c1ccc(O)cc1)c1ccc(O)cc1`, the GI50 with OVCAR-4 ovarian was 8.06 µM; in the experiment on OVCAR-8 ovarian it was 7.9 µM; in the experiment with SNB-19 CNS it was 10.6 µM; in the experiment with OVCAR-5 ovarian, 14.1 µM; in the experiment on UO-31 renal, 6.38 µM; in the experiment with SK-OV-3 ovarian it was 3.63 µM. For the same compound, the GI50 in the experiment on CAKI-1 renal is 4.22 µM; in the experiment with ACHN renal, 6.07 µM; with SN12C renal, 5.9 µM. Further, the TGI was determined as 37 µM in the experiment with OVCAR-4 ovarian; 37.1 µM in the experiment with OVCAR-8 ovarian; 25.5 µM in the experiment on SNB-19 CNS; 30.1 µM in the experiment on OVCAR-5 ovarian; 21.6 µM in the experiment with UO-31 renal; 13 µM in the experiment on SK-OV-3 ovarian. In addition, the TGI came to 27.8 µM in the experiment on CAKI-1 renal, 18.3 µM with ACHN renal and 28.6 µM with SN12C renal.

For `O=c1[nH]c(-c2ccc([N+](=O)[O-])cc2)nc2ccc(Cl)cc12`, the TGI in the experiment on OVCAR-8 ovarian was above 100 µM; in the experiment on SNB-19 CNS, above 100 µM; in the experiment on OVCAR-5 ovarian it was above 100 µM; in the experiment with K-562 leukemia, 38.8 µM; in the experiment with UO-31 renal, above 100 µM; in the experiment with SK-OV-3 ovarian, above 100 µM. The TGI in the experiment with ACHN renal and with SN12C renal was above 100 µM throughout.

As to `c1ccc(N2N=NC3C4CC(C5c6ccccc6C45)C32)cc1` (configuration not stated), the TGI was above 100 µM with OVCAR-4 ovarian; above 100 µM in the experiment with OVCAR-8 ovarian; above 100 µM in the experiment with SNB-19 CNS; above 100 µM with OVCAR-5 ovarian; above 100 µM in the experiment with K-562 leukemia; 72.1 µM in the experiment on UO-31 renal. Moreover, the TGI with SK-OV-3 ovarian, with CAKI-1 renal and in the experiment with SN12C renal was above 100 µM each time.
